The values below come from US6710048B2, “Pyrazine derivatives as modulators of tyrosine kinases” (Ortho-McNeil Pharmaceutical, Inc., priority 2000, dated 2004).

One may read the IC50 as the point on the concentration scale where inhibition reaches its midpoint.

T1 sequence (P06493 whole entry): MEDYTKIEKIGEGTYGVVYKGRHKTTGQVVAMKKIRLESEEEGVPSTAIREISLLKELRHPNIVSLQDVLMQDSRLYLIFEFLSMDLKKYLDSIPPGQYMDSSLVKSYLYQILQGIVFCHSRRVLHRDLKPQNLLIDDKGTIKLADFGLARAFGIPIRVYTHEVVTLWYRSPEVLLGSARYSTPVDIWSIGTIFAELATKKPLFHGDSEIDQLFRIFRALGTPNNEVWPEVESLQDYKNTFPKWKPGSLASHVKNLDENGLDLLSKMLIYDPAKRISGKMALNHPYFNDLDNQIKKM
T1 sequence (P14635 whole entry partner): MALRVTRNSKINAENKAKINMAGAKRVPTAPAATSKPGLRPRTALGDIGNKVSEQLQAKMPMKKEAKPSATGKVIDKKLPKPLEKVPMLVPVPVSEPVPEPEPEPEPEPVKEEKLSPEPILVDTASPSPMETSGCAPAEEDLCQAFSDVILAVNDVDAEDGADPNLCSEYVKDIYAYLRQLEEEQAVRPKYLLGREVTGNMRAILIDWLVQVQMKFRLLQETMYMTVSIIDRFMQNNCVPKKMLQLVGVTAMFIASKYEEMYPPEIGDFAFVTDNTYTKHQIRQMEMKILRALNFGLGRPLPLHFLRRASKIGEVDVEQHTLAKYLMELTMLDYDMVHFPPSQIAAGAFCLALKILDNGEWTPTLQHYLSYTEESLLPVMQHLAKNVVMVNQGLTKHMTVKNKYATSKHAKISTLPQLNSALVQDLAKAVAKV

The first experiment addresses T1, CDK1 (cyclin dependent kinase 1) / cyclin B (Homo sapiens, UniProt P06493).
T1 construct: purchased New England Biolabs 6020; host or cells: insect cells
In words: CDK1 kinase assay. It is filed as biochemical. The note with it: Tables 1-3; >10 or >100 = no 50% inhibition at highest dose tested; read-out: CDK IC50. As for the experimental part:
(§1) The term n.d. means not tested.
Assays to test compound inhibition of other kinases were preformed using methods that measure the amount of phosphorylation of a biotinylated peptide substrate. Biotinylated peptide substrates were selected from the literature as appropriate for the enzyme being evaluated. The general procedure used to assay for kinase activity is as follows: A kinase reaction mix was prepared in 50 mM Tris-HCl pH=8, 10 mM MgCl2, 0.1 mM NaVO4, 1 mM DTT, 5-10 μM ATP, 0.25-1 μM biotinylated peptide substrate, 0.2-0.8 μCuries per well ^33P-γ-ATP [2000-3000 Ci/mmol]. Assay conditions vary slightly for each protein kinase, for example, insulin receptor kinase requires 10 mM MnCl2 for activity and Calmodulin-dependent protein kinase requires calmodulin and 2 mM CaCl2. The reaction mixture was dispensed into the wells of a streptavidin coated Flashplate and 1 μl drug stock in 100% DMSO was added to a 100 μl reaction volume resulting in a final concentration of 1% DMSO in the reaction. Enzyme was diluted in 50 mM Tris-HCl pH=8.0, 0.1% BSA and added to each well. The reaction was incubated for one hour at 30° C. in the presence of compound. After one hour the reaction mix was aspirated from the plate and the plate was washed with PBS containing 100 mM EDTA. The plate was read on a scintillation counter to determine ^33P-γ-ATP incorporated into the immobilized peptide. […] A maximum and minimum signal for the assay was determined on each plate. The IC50 was calculated from the dose response curve of the percent inhibition of the maximum signal in the assay according to the formula [max signal−background/test compound signal−background (100)=% inhibition] by graphing the percent inhibition against the log concentration of test compound. Known inhibitor compounds appropriate for the kinase being assayed were also included on each plate.
VEGF-R (vascular endothelial growth factor receptor-2) is a fusion protein containing a polyhistidine tag at the N-terminus followed by amino acids 786-1343 of the rat VEGF-R2 kinase domain (GenBank Accession #U93306). CDK1 (cyclin dependent kinase 1) is isolated from insect cells expressing both the human CDK1 catalytic subunit and its positive regulatory subunit cyclin B (New England Biolabs, Beverly, Mass., Cat. #6020). CDK4 (cyclin dependent kinase 4) contains amino acids 769 to 921 of the mouse […] protein found in the GST-retinoblastoma protein construct (Santa Cruz Biotechnology, Santa Cruz, Calif.; Cat. #SC-4112). Insulin Receptor Kinase consists of residues 941-1313 of the cytoplasmic domain of the beta-subunit of the human insulin receptor (BIOMOL, Plymouth Meeting, Pa., Cat. #SE-195). Protein Kinase A is the catalytic subunit of cAMP dependent protein kinase-A purified from bovine heart (Upstate Biotech, Lake Placid, N.Y., Cat#14-114). PKC (protein kinase-C) is the gamma or beta isoform of the human protein produced in insect cells (BIOMOL, Plymouth Meeting, Pa., Cat. #SE-143). Casein Kinase 1 is a truncation at amino acid 318 of the C-terminal portion of the rat CK1 delta isoform produced in E.coli (New England Biolabs, Beverly, Mass., Cat. #6030). Casein Kinase 2 includes the alpha and beta subunits of the human CK2 protein produced in E.coli (New England Biolabs, Beverly, Mass., Cat. #6010). Calmodulin Kinase (calmodulin-dependent protein kinase 2) is a truncated version of the alpha subunit of the rat protein produced in insect cells (New England Biolabs, Beverly, Mass., Cat. #6060). Glycogen Synthase Kinase-3 is the beta isoform of the rabbit enzyme produced in E. coli (New England Biolabs, Beverly, Mass., Cat. #6040). MAP Kinase is the rat ERK-2 isoform containing a polyhistidine tag at the N-terminus produced in E. coli. and activated by phosphorylation with MEK1 prior to purification (BIOMOL, Plymouth Meeting, Pa., Cat. #SE-137). EGFR (epidermal growth factor receptor) is purified from human A431 cell membranes (Sigma, St. Louis, Mo., Cat.# E3641). […]
Consider `COc1ccc(Nc2cncc(-c3cncc(NCCCc4ccncc4)c3)n2)cc1` [Cmd 88], for which the IC50 was more than 10 µM.

With `CN(C)CCNC(=O)c1cncc(-c2cncc(Nc3cccc(Cl)c3)n2)c1` [Cmd 38], the IC50 amounted to 3.69 µM.

For `CCOC(=O)c1cncc(-c2cncc(Nc3cccc(Cl)c3)n2)c1` [Cmd 1], the IC50 is more than 10 µM.

In the case of `COCC(=O)Nc1cncc(-c2cncc(Nc3cccc(Cl)c3)n2)c1` [Cmd 41], the IC50 was more than 100 µM.

For the molecule `Nc1cncc(-c2cncc(Nc3cccc(Cl)c3)n2)c1` [Cmd 5], the 50% inhibitory concentration (IC50) was 11.7 µM.

For the molecule `COCCC(=O)Nc1cncc(-c2cncc(Nc3cccc(Cl)c3)n2)c1` [Cmd 103], the IC50 was more than 10 µM.

Turning to `O=C(Nc1cncc(-c2cncc(Nc3cccc(Cl)c3)n2)c1)N1CCCC1` [Cmd 74], the half-maximal inhibitory concentration (IC50) was more than 10 µM.

For `OCCCNc1cncc(-c2cncc(NCc3ccccc3)n2)c1` [Cmd 62], the IC50 stood at 34.4 µM.

For `Nc1ncc(NCCCO)cc1-c1cncc(Nc2cccc(Cl)c2)n1` [Cmd 107], the IC50 was more than 10 µM.

Regarding `O=C(Nc1cncc(-c2cncc(Nc3cccc(Cl)c3)n2)c1)c1cccnc1` [Cmd 43], the IC50 was more than 100 µM.

Regarding `Clc1cccc(Nc2cncc(-c3cncc(NCCOc4ccccc4)c3)n2)c1` [Cmd 83], the IC50 was more than 10 µM.

As to `Clc1cccc(Nc2cncc(-c3cncc(NCCCN4CCNCC4)c3)n2)c1` [Cmd 69], the IC50 was more than 10 µM.

For `COCCNC(=O)c1cncc(-c2cncc(Nc3cccc(Cl)c3)n2)c1` [Cmd 36], the IC50 was more than 100 µM.

The target of a further experiment is T2, VEGF-R (vascular endothelial growth factor receptor-2) (Rattus norvegicus, UniProt O08775).
T2 construct: polyhistidine (6xHis) (N)
T2 sequence (O08775 786-1343): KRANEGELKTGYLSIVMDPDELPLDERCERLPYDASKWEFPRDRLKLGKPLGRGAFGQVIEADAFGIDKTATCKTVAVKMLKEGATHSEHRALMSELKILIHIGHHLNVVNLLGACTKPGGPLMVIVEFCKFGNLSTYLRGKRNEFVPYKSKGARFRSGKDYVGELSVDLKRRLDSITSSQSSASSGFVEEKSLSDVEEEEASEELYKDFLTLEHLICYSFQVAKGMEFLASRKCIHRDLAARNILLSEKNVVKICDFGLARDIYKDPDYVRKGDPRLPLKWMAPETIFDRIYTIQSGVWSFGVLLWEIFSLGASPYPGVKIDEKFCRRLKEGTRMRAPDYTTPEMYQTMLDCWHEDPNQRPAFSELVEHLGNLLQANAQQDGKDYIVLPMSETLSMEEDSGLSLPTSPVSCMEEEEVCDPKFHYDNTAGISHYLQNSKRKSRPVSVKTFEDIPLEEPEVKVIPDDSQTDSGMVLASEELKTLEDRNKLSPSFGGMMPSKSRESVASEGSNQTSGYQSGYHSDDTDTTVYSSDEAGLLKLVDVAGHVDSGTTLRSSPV
In words: VEGF-R screening assay (33P FlashPlate kinase assay). The note with it: Tables 1-3; >10 or >100 = no 50% inhibition at highest dose tested; read-out: VEGF-R IC50. It is filed as biochemical. As for the experimental part: A kinase reaction mixture was prepared containing 50 mM Tris-HCl pH=8, 10 mM MgCl2, 0.1 mM NAPO4, 1 mM DTT, 10 μM ATP, 0.025 μM biotinylated peptide substrate and 0.8 μCuries per well ^33P-γ-ATP [2000-3000 Ci/mmol]. 70 μl of the kinase reaction mixture was dispensed into the well of a streptavidin coated FlashPlate™ (Cat. # SMP103, NEN, Boston, Mass.). Then 1 μl of test compound stock in 100% DMSO was added to the wells resulting in a final concentration of 1% DMSO in the reaction with a 100 μl final reaction volume. Next, soluble rat tyrosine kinase containing an N-terminal 6×HIS tag was diluted in 50 mM Tris-HCl pH=8.0, 0.1% BSA at a concentration of 5 ng per microliter and 30 μl (150 ng enzyme per test well) was added to each well to initiate the reaction. The reaction was incubated for one hour at 30° C. At the end of the 1-hour incubation, the reaction was terminated by aspirating the reaction mixture from the plate and washing the wells twice with PBS containing 100 mM EDTA. The PLCI biotinylated peptide substrate becomes immobilized on the Flashplate™ and the incorporation of ^33P-γ-ATP was measured by reading the plate on a scintillation counter. Inhibition of the enzymatic activity of the VEGF-R was measured by observing a reduced amount of ^33P-γ-ATP incorporated into the immobilized peptide.
as §1
Assays to test compound inhibition of other kinases were preformed using methods that measure the amount of phosphorylation of a biotinylated peptide substrate. Biotinylated peptide substrates were selected from the literature as appropriate for the enzyme being evaluated. The general procedure used to assay for kinase activity is as follows: A kinase reaction mix was prepared in 50 mM Tris-HCl pH=8, 10 mM MgCl2, 0.1 mM NaVO4, 1 mM DTT, 5-10 μM ATP, 0.25-1 μM biotinylated peptide substrate, 0.2-0.8 μCuries per well ^33P-γ-ATP [2000-3000 Ci/mmol]. Assay conditions vary slightly for each protein kinase, for example, insulin receptor kinase requires 10 mM MnCl2 for activity and Calmodulin-dependent protein kinase requires calmodulin and 2 mM CaCl2. The reaction mixture was dispensed into the wells of a streptavidin coated Flashplate and 1 μl drug stock in 100% DMSO was added to a 100 μl reaction volume resulting in a final concentration of 1% DMSO in the reaction. Enzyme was diluted in 50 mM Tris-HCl pH=8.0, 0.1% BSA and added to each well. The reaction was incubated for one hour at 30° C. in the presence of compound. After one hour the reaction mix was aspirated from the plate and the plate was washed with PBS containing 100 mM EDTA. The plate was read on a scintillation counter to determine ^33P-γ-ATP incorporated into the immobilized peptide. Test compounds were assayed in duplicate at 8 concentrations [100 tM, 10 μM, 1 μM, 100 nM, 10 nM, 1 nM, 100 μM, 10 μM]. A maximum and minimum signal for the assay was determined on each plate. The IC50 was calculated from the dose response curve of the percent inhibition of the maximum signal in the assay according to the formula [max signal−background/test compound signal−background (100)=% inhibition] by graphing the percent inhibition against the log concentration of test compound. Known inhibitor compounds appropriate for the kinase being assayed were also included on each plate.
VEGF-R (vascular endothelial growth factor receptor-2) is a fusion protein containing a polyhistidine tag at the N-terminus followed by amino acids 786-1343 of the rat VEGF-R2 kinase domain (GenBank Accession #U93306). CDK1 (cyclin dependent kinase 1) is isolated from insect cells expressing both the human CDK1 catalytic subunit and its positive regulatory subunit cyclin B (New England Biolabs, Beverly, Mass., Cat. #6020). CDK4 (cyclin dependent kinase 4) contains amino acids 769 to 921 of the mouse […] protein found in the GST-retinoblastoma protein construct (Santa Cruz Biotechnology, Santa Cruz, Calif.; Cat. #SC-4112). […]
For the molecule `Clc1cccc(Nc2cncc(-c3cncc(NCCCCc4ccncc4)c3)n2)c1` [Cmd 70], the IC50 stood at 0.295 µM.

With `COc1ccc(Nc2cncc(-c3cncc(NCCCc4ccncc4)c3)n2)cc1` [Cmd 88], the IC50 is 0.154 µM.

For the molecule `CN(C)CCNC(=O)c1cncc(-c2cncc(Nc3cccc(Cl)c3)n2)c1` [Cmd 38], the IC50 came out at 4.3 µM.

Consider `COCC(=O)Nc1cncc(-c2cncc(Nc3cccc(Cl)c3)n2)c1` [Cmd 41], for which the IC50 amounted to 0.36 µM.

Consider `Nc1cncc(-c2cncc(Nc3cccc(Cl)c3)n2)c1` [Cmd 5], for which the half-maximal inhibitory concentration (IC50) came to 1.16 µM.

In the case of `COCCC(=O)Nc1cncc(-c2cncc(Nc3cccc(Cl)c3)n2)c1` [Cmd 103], the IC50 is 0.59 µM.

Regarding `O=C(Nc1cncc(-c2cncc(Nc3cccc(Cl)c3)n2)c1)N1CCCC1` [Cmd 74], the IC50 came out at 0.578 µM.

In the case of `OCCCNc1cncc(-c2cncc(NCc3ccccc3)n2)c1` [Cmd 62], the half-inhibitory concentration (IC50) amounted to 1.05 µM.

In the case of `Nc1ncc(NCCCO)cc1-c1cncc(Nc2cccc(Cl)c2)n1` [Cmd 107], the IC50 was 1.36 µM.

As for `O=C(Nc1cncc(-c2cncc(Nc3cccc(Cl)c3)n2)c1)c1cccnc1` [Cmd 43], the IC50 was found to be 1.12 µM.

Take `Clc1cccc(Nc2cncc(-c3cncc(NCCOc4ccccc4)c3)n2)c1` [Cmd 83]: the IC50 was more than 10 µM.

Take `Clc1cccc(Nc2cncc(-c3cncc(NCCCN4CCNCC4)c3)n2)c1` [Cmd 69]: the IC50 stood at 0.364 µM.

In the case of `COCCNC(=O)c1cncc(-c2cncc(Nc3cccc(Cl)c3)n2)c1` [Cmd 36], the IC50 is approximately 10 µM.
